As a reminder, the solubility is the concentration that dissolves in the medium under given conditions.

In brackets after ≈: the same amount, converted by molar mass. Read-outs that look alike come from different tables or passages of the source.

The conditions of data set [1]: water, cited from earlier work.
A further data set in a line: physchem. Conditions: artificial sweat, 36 °C.
The nature of data set [2]: Dissolution of vitamin constituents during preparation of artificial sweat. Conditions: for dissolution on addition to the artificial sweat solution: before pH adjustment (pH 3.8 as prepared), 36° C.
Protocol: (§1) This large initial volume was useful in promoting dissolution of the constituents of the artificial sweat. […] Next, the desired masses of electrolytes and other ionic constituents (see Table 2) were added to the flask. Upon addition of the electrolytes and ionic constituents, the concentrations of chloride, calcium, and iron were measured to assess whether they matched predictions from weighing: 1.67×10^−2 M chloride, 6.93×10^−3 M calcium, and 0.54 ppm iron. Next, organic acids and carbohydrates were added to the solution (see Table 2) and the stability of chloride, calcium, and iron concentrations verified. Amino acids were added (see Table 2) then calcium and iron concentrations verified; chloride ion concentration was measured to determine if it matched the predicted value (1.7×10^−2 M) from weighing electrolytes, ionic constituents, and hydrogen chloride salts of some amino acids. Nitrogenous substances were added (see Table 2) and chloride, calcium, and iron concentrations re-verified.
(§2) Vitamin constituents were added to the solution last (see Table 2).
(§3) The pH of the artificial sweat solution was raised from 3.8 (as prepared) to a final pH of 5.3 by adding 5 M sodium hydroxide dropwise while monitoring using a calibrated pH electrode (InLab 413, Mettler-Toledo, Schwerzenbach, Switzerland) connected to a multi-meter (Seven Multi, Mettler-Toledo). […] The final volume of the solution was then brought up to 1.0 L using 18 megohm-cm distilled and deionized water and the final pH verified. To minimize opportunity for microbial growth, the final sweat solution was filtered through a 0.2 μm pore size filter (Cat. No. SCGVU11RE, Millipore Corp., Billerica, Mass.).
A short description of data set [3]: Long-term stability of artificial sebum by thin-layer chromatography. Format: physicochemical. Conditions: dry at 32° C., absence of vitamin E. As to the method:
Lipids and formulation of synthetic sebum. Cholesteryl oleate, oleoyl oleate, palmityl palmitate, cholesterol and vitamin E ((±)-α-tocopherol) were purchased from Sigma-Aldrich (St. Louis, Mo.). Squalene and stearic acid were from Acros Organics (Geel, Belgium). Triolein and tristearin were purchased from MP Biochemicals (Solon, Ohio), and oleic acid was from Fisher Scientific (Fairlawn, N.J.). […] All nine lipids were dissolved in a 2:1 co-solvent mixture of chloroform and methanol and divided into two portions, one of which received vitamin E at 0.1% by weight to mimic human sebum content. After combining and mixing, portions of lipid solution were transferred to 16×125 mm glass tubes equipped with Teflon-lined screw caps. One set of tubes with lipid solution was maintained at 4° C. to characterize storage using refrigeration. […]
Thin-layer chromatography. All samples were analyzed using thin layer chromatography. Glass plates (20×20 cm) coated with 0.25-mm-thick silica gel G (Adsorbosil-plus-1; Alltech Associates; Deerfield Ill.) were washed with chloroform:methanol, 2:1, activated in a 110° C. oven, and the adsorbent was scored into 6-mm-wide lanes. […] After two hrs, charring was complete, and the chromatograms were quantitated by photodensitometry. […]

Protocol for physchem: as §1, §2, §3

On to `Cc1cc2nc3c(=O)[nH]c(=O)nc-3n(C[C@H](O)[C@H](O)[C@H](O)COP(=O)(O)O)c2cc1C` [riboflavin 5′-(dihydrogen phosphate), reference compound], for which the solubility in data set [1] (pH=5.6) was 68 mg/mL.

Regarding `Cc1cc2nc3c(=O)[nH]c(=O)nc-3n(C[C@H](O)[C@H](O)[C@H](O)CO)c2cc1C` [riboflavin, Riboflavin (C17H20N4O6)], the values for the solubility (in the data set “physchem”; in data set [1]) were no less than 2000 µM and 0.3 mg/mL (≈ 797 µM), respectively. Also, the “concentration in artificial sweat relative to that predicted by solubility in water” value in data set [2] (artificial sweat vs water) was “two orders of magnitude greater”.

In the case of `O=C(O)c1cccnc1` [nicotinic acids, Nicotinic Acid (C6H5NO2)], the “dissolution on addition to the artificial sweat solution” value in data set [2] was “did not dissolve completely”.

Turning to `CC(C)(CO)[C@@H](O)C(=O)NCCC(=O)O` [pantothenic, D-Pantothenic Acid (C9H17NO5)], the “dissolution on addition to the artificial sweat solution” value in data set [2] was “did not dissolve completely”.

Consider `CC(C)=CCC/C(C)=C/CC/C(C)=C/CC/C=C(\C)CC/C=C(\C)CCC=C(C)C` [squalene], for which the “day by which completely oxidized” value in data set [3] was no more than 21 days.

(Values after patent US20080311613A1, “ARTIFICIAL SKIN SURFACE FILM LIQUIDS” (The Government of the U.S.A. as represented by the …, priority 2007, published 2008).)
